{
  "source": "ChEMBL document CHEMBL1201862",
  "about": "“PubChem BioAssay data set” (2004)",
  "test_in_all_cases": "NCI-60 cell line screen, 48 h",
  "key": {"PC-3": {"system": "PC-3"}, "NCI-H522": {"system": "NCI-H522"}, "MDA-MB-435": {"system": "MDA-MB-435"}, "NCI-H23": {"system": "NCI-H23"}, "LOX IMVI": {"system": "LOX IMVI"}, "IGROV-1": {"system": "IGROV-1"}, "RPMI-8226": {"system": "RPMI-8226"}, "NCI-H226": {"system": "NCI-H226"}, "MCF7": {"system": "MCF7"}, "SF-539": {"system": "SF-539"}, "OVCAR-8": {"system": "OVCAR-8"}, "HL-60": {"system": "HL-60"}, "NCI/ADR-RES": {"system": "NCI/ADR-RES"}, "HOP-92": {"system": "HOP-92"}, "ACHN": {"system": "ACHN"}, "SR": {"system": "SR"}, "786-0": {"system": "786-0"}, "TK-10": {"system": "TK-10"}, "M14": {"system": "M14"}, "HCT-116": {"system": "HCT-116"}, "EKVX": {"system": "EKVX"}, "OVCAR-5": {"system": "OVCAR-5"}, "SK-MEL-2": {"system": "SK-MEL-2"}, "NCI-H460": {"system": "NCI-H460"}, "SN12C": {"system": "SN12C"}, "UACC-257": {"system": "UACC-257"}, "SF-268": {"system": "SF-268"}, "MOLT-4": {"system": "MOLT-4"}, "UO-31": {"system": "UO-31"}, "A498": {"system": "A498"}, "A549": {"system": "A549"}, "SK-OV-3": {"system": "SK-OV-3"}, "HT-29": {"system": "HT-29"}, "Hs-578T": {"system": "Hs-578T"}, "KM12": {"system": "KM12"}, "T47D": {"system": "T47D"}, "HOP-62": {"system": "HOP-62"}, "SK-MEL-28": {"system": "SK-MEL-28"}, "OVCAR-3": {"system": "OVCAR-3"}, "CAKI-1": {"system": "CAKI-1"}, "HCT-15": {"system": "HCT-15"}, "SK-MEL-5": {"system": "SK-MEL-5"}, "MDA-N": {"system": "MDA-N"}, "SF-295": {"system": "SF-295"}, "SNB-75": {"system": "SNB-75"}, "SNB-19": {"system": "SNB-19"}, "HCC 2998": {"system": "HCC 2998"}, "OVCAR-4": {"system": "OVCAR-4"}, "UACC-62": {"system": "UACC-62"}, "Malme-3M": {"system": "Malme-3M"}, "COLO 205": {"system": "COLO 205"}, "U-251": {"system": "U-251"}, "MDA-MB-231": {"system": "MDA-MB-231"}, "DU-145": {"system": "DU-145"}, "RXF 393": {"system": "RXF 393"}, "SW-620": {"system": "SW-620"}, "BT-549": {"system": "BT-549"}},
  "note": "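1) Cells in 96-well plates. 2) Compound, 48 h, 5 concentrations. 3) Linear interpolation between surrounding doses. 4) Unreached endpoint = highest concentration. At the GI50, growth is halved.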 Activity calls are given as the source filed them. No stated cut-off is given here; in the data, active = GI50 up to about 1.1 µM and inactive = higher.",
  "data": [
    {"smiles": "CN(C)C(=S)Oc1ccc2ccc(=O)oc2c1", "values": [
      {"measurement": "GI50", "setting": "PC-3", "value": "> 100 µM (inactive)"},
      {"measurement": "GI50", "setting": "NCI-H522", "value": "> 100 µM (inactive)"},
      {"measurement": "GI50", "setting": "MDA-MB-435", "value": "> 100 µM (inactive)"},
      {"measurement": "GI50", "setting": "NCI-H23", "value": "> 100 µM (inactive)"},
      {"measurement": "GI50", "setting": "LOX IMVI", "value": "> 100 µM (inactive)"},
      {"measurement": "GI50", "setting": "IGROV-1", "value": "> 100 µM (inactive)"},
      {"measurement": "GI50", "setting": "RPMI-8226", "value": "> 100 µM (inactive)"},
      {"measurement": "GI50", "setting": "NCI-H226", "value": "> 100 µM (inactive)"},
      {"measurement": "GI50", "setting": "MCF7", "value": "> 100 µM (inactive)"},
      {"measurement": "GI50", "setting": "SF-539", "value": "> 100 µM (inactive)"},
      {"measurement": "GI50", "setting": "OVCAR-8", "value": "> 100 µM (inactive)"},
      {"measurement": "GI50", "setting": "HL-60", "value": "> 100 µM (inactive)"},
      {"measurement": "GI50", "setting": "NCI/ADR-RES", "value": "> 100 µM (inactive)"},
      {"measurement": "GI50", "setting": "HOP-92", "value": "> 100 µM (inactive)"},
      {"measurement": "GI50", "setting": "ACHN", "value": "> 100 µM (inactive)"},
      {"measurement": "GI50", "setting": "SR", "value": "> 100 µM (inactive)"},
      {"measurement": "GI50", "setting": "786-0", "value": "> 100 µM (inactive)"},
      {"measurement": "GI50", "setting": "TK-10", "value": "> 100 µM (inactive)"},
      {"measurement": "GI50", "setting": "M14", "value": "> 100 µM (inactive)"},
      {"measurement": "GI50", "setting": "HCT-116", "value": "> 100 µM (inactive)"},
      {"measurement": "GI50", "setting": "EKVX", "value": "> 100 µM (inactive)"},
      {"measurement": "GI50", "setting": "OVCAR-5", "value": "> 100 µM (inactive)"},
      {"measurement": "GI50", "setting": "SK-MEL-2", "value": "> 100 µM (inactive)"},
      {"measurement": "GI50", "setting": "NCI-H460", "value": "> 100 µM (inactive)"},
      {"measurement": "GI50", "setting": "SN12C", "value": "> 100 µM (inactive)"},
      {"measurement": "GI50", "setting": "UACC-257", "value": "> 100 µM (inactive)"},
      {"measurement": "GI50", "setting": "SF-268", "value": "> 100 µM (inactive)"},
      {"measurement": "GI50", "setting": "MOLT-4", "value": "> 100 µM (inactive)"},
      {"measurement": "GI50", "setting": "UO-31", "value": "> 100 µM (inactive)"},
      {"measurement": "GI50", "setting": "A498", "value": "> 100 µM (inactive)"},
      {"measurement": "GI50", "setting": "A549", "value": "> 100 µM (inactive)"},
      {"measurement": "GI50", "setting": "SK-OV-3", "value": "> 100 µM (inactive)"},
      {"measurement": "GI50", "setting": "HT-29", "value": "> 100 µM (inactive)"},
      {"measurement": "GI50", "setting": "Hs-578T", "value": "> 100 µM (inactive)"},
      {"measurement": "GI50", "setting": "KM12", "value": "> 100 µM (inactive)"},
      {"measurement": "GI50", "setting": "T47D", "value": "> 100 µM (inactive)"},
      {"measurement": "GI50", "setting": "HOP-62", "value": "> 100 µM (inactive)"},
      {"measurement": "GI50", "setting": "SK-MEL-28", "value": "> 100 µM (inactive)"},
      {"measurement": "GI50", "setting": "OVCAR-3", "value": "> 100 µM (inactive)"},
      {"measurement": "GI50", "setting": "CAKI-1", "value": "> 100 µM (inactive)"},
      {"measurement": "GI50", "setting": "HCT-15", "value": "> 100", "unit": "µM"},
      {"measurement": "GI50", "setting": "SK-MEL-5", "value": "> 100 µM (inactive)"},
      {"measurement": "GI50", "setting": "MDA-N", "value": "> 100 µM (inactive)"},
      {"measurement": "GI50", "setting": "SF-295", "value": "> 100 µM (inactive)"},
      {"measurement": "GI50", "setting": "SNB-75", "value": "> 100 µM (inactive)"},
      {"measurement": "GI50", "setting": "SNB-19", "value": "> 100 µM (inactive)"},
      {"measurement": "GI50", "setting": "HCC 2998", "value": "> 100 µM (inactive)"},
      {"measurement": "GI50", "setting": "OVCAR-4", "value": "> 100 µM (inactive)"},
      {"measurement": "GI50", "setting": "UACC-62", "value": "> 100 µM (inactive)"},
      {"measurement": "GI50", "setting": "Malme-3M", "value": "> 100 µM (inactive)"},
      {"measurement": "GI50", "setting": "COLO 205", "value": "> 100 µM (inactive)"},
      {"measurement": "GI50", "setting": "U-251", "value": "> 100 µM (inactive)"},
      {"measurement": "GI50", "setting": "MDA-MB-231", "value": "> 100 µM (inactive)"},
      {"measurement": "GI50", "setting": "DU-145", "value": "> 100 µM (inactive)"},
      {"measurement": "GI50", "setting": "RXF 393", "value": "> 100 µM (inactive)"},
      {"measurement": "GI50", "setting": "SW-620", "value": "> 100 µM (inactive)"},
      {"measurement": "GI50", "setting": "BT-549", "value": "> 100 µM (inactive)"}
    ]}
  ]
}
